Measurements published in the NIST ThermoML archive (doi:10.1016/j.jct.2009.02.008).
“And” between values parts separate entries of the source, which are not always exact repeats. Equal values may be shown once.

How the values were obtained:
[1] = Molar enthalpy of transition or fusion; settings: Crystal; DSC
[2] = for vapor or sublimation pressure: Torsion effusion method; for Normal melting temperature: DTA

O=C(O)c1ccc([N+](=O)[O-])cc1[N+](=O)[O-] [2,4-dinitrobenzoic acid]
Settings | Molar enthalpy of transition or fusion [kJ/mol]
[1] | 30.6

[2]
Settings | vapor or sublimation pressure
363.5 K, Crystal | 3e-05 kPa
370 K, Crystal | 6e-05 kPa
373 K, Crystal | 9e-05 kPa
375 K, Crystal | 0.000105 kPa
377 K, Crystal | 0.00015 kPa
377.5 K, Crystal | 0.00015 kPa
379 K, Crystal | 0.000195 kPa
381 K, Crystal | 0.00024 kPa
381.5 K, Crystal | 0.00024 kPa
385 K, Crystal | 0.00033 kPa
388.5 K, Crystal | 0.000511 kPa and 0.000541 kPa
389 K, Crystal | 0.00048 kPa and 0.000541 kPa
391 K, Crystal | 0.000601 kPa and 0.000631 kPa and 0.000691 kPa
393 K, Crystal | 0.000781 kPa
393.5 K, Crystal | 0.000901 kPa
394 K, Crystal | 0.000871 kPa
396.5 K, Crystal | 0.001141 kPa
397 K, Crystal | 0.001141 kPa
399 K, Crystal | 0.001351 kPa and 0.001502 kPa
399.5 K, Crystal | 0.001622 kPa
400 K, Crystal | 0.001622 kPa
401.5 K, Crystal | 0.001952 kPa
402 K, Crystal | 0.001862 kPa
402.5 K, Crystal | 0.001922 kPa
494.3 K, Liquid | 0.85 kPa
494.4 K, Liquid | 0.85 kPa
494.5 K, Liquid | 0.851 kPa
494.7 K, Liquid | 0.85 kPa
495.6 K, Liquid | 0.874 kPa
495.7 K, Liquid | 0.883 kPa
495.8 K, Liquid | 0.879 kPa
495.9 K, Liquid | 0.884 kPa
500.6 K, Liquid | 1.05 kPa and 1.065 kPa
500.8 K, Liquid | 1.051 kPa and 1.058 kPa
501.1 K, Liquid | 1.047 kPa
501.2 K, Liquid | 1.016 kPa and 1.046 kPa and 1.048 kPa
501.5 K, Liquid | 1.06 kPa
502.4 K, Liquid | 1.13 kPa
503.2 K, Liquid | 1.259 kPa
504.4 K, Liquid | 1.202 kPa
505.3 K, Liquid | 1.309 kPa
506.2 K, Liquid | 1.299 kPa
507.1 K, Liquid | 1.451 kPa
507.2 K, Liquid | 1.464 kPa
507.4 K, Liquid | 1.458 kPa
507.5 K, Liquid | 1.475 kPa
508.1 K, Liquid | 1.511 kPa
508.2 K, Liquid | 1.484 kPa and 1.513 kPa
508.3 K, Liquid | 1.516 kPa
508.5 K, Liquid | 1.513 kPa
510.3 K, Liquid | 1.607 kPa
511.4 K, Liquid | 1.647 kPa
511.5 K, Liquid | 1.909 kPa
512.3 K, Liquid | 1.785 kPa
512.8 K, Liquid | 1.798 kPa and 1.814 kPa and 1.816 kPa
512.9 K, Liquid | 1.849 kPa [middle of 4 runs]
513 K, Liquid | 1.814 kPa
513.2 K, Liquid | 1.704 kPa
514.4 K, Liquid | 1.9 kPa
515.2 K, Liquid | 1.995 kPa
516.4 K, Liquid | 1.952 kPa
517.2 K, Liquid | 2.293 kPa and 2.389 kPa and 2.212 kPa
517.3 K, Liquid | 2.207 kPa and 2.212 kPa
518.4 K, Liquid | 2.196 kPa
519.3 K, Liquid | 2.153 kPa
520.2 K, Liquid | 2.466 kPa
521.4 K, Liquid | 2.522 kPa
522.3 K, Liquid | 2.494 kPa
523 K, Liquid | 2.741 kPa
523.1 K, Liquid | 2.703 kPa and 2.754 kPa
523.2 K, Liquid | 2.768 kPa
523.3 K, Liquid | 2.731 kPa
524.3 K, Liquid | 2.997 kPa
526.3 K, Liquid | 3.049 kPa
527.2 K, Liquid | 3.107 kPa
528.4 K, Liquid | 3.467 kPa
528.9 K, Liquid | 3.528 kPa and 3.623 kPa and 3.453 kPa
529 K, Liquid | 3.447 kPa
529.2 K, Liquid | 3.297 kPa
530.4 K, Liquid | 3.895 kPa
531.2 K, Liquid | 3.694 kPa
531.3 K, Liquid | 3.86 kPa and 3.894 kPa
531.4 K, Liquid | 3.865 kPa
531.5 K, Liquid | 3.847 kPa
532.2 K, Liquid | 3.786 kPa
533.4 K, Liquid | 4.205 kPa
534.2 K, Liquid | 4.308 kPa and 3.936 kPa and 4.141 kPa
534.4 K, Liquid | 4.173 kPa and 4.085 kPa
535.4 K, Liquid | 4.593 kPa
536.3 K, Liquid | 4.615 kPa
537.3 K, Liquid | 4.715 kPa and 4.48 kPa
537.4 K, Liquid | 4.808 kPa and 4.815 kPa
537.5 K, Liquid | 4.648 kPa
538.2 K, Liquid | 4.909 kPa
539.2 K, Liquid | 5.258 kPa and 5.485 kPa and 5.433 kPa
539.3 K, Liquid | 5.693 kPa
539.4 K, Liquid | 4.999 kPa
540.3 K, Liquid | 5.053 kPa
541.2 K, Liquid | 5.592 kPa
543.3 K, Liquid | 5.789 kPa
544.2 K, Liquid | 5.62 kPa

Settings | Normal melting temperature [°C]
[2], Crystal | 182.7

O=C(O)c1ccc([N+](=O)[O-])c([N+](=O)[O-])c1 [3,4-dinitrobenzoic acid]
Settings | Molar enthalpy of transition or fusion [kJ/mol]
[1] | 24.6

[2]
Settings | vapor or sublimation pressure
366 K, Crystal | 6e-05 kPa
367 K, Crystal | 7.5e-05 kPa
368 K, Crystal | 7.5e-05 kPa
369 K, Crystal | 9e-05 kPa
370 K, Crystal | 0.000105 kPa
370.5 K, Crystal | 0.000105 kPa
373 K, Crystal | 0.00015 kPa
373.5 K, Crystal | 0.00015 kPa
374 K, Crystal | 0.00015 kPa
374.5 K, Crystal | 0.00015 kPa
376 K, Crystal | 0.00018 kPa
378 K, Crystal | 0.00024 kPa
379 K, Crystal | 0.00027 kPa
380 K, Crystal | 0.00027 kPa
382 K, Crystal | 0.00039 kPa and 0.00036 kPa
383 K, Crystal | 0.00039 kPa
383.5 K, Crystal | 0.00039 kPa
384.5 K, Crystal | 0.00048 kPa
385 K, Crystal | 0.000511 kPa
386.5 K, Crystal | 0.000541 kPa
387 K, Crystal | 0.000571 kPa
387.5 K, Crystal | 0.000631 kPa
390.5 K, Crystal | 0.000841 kPa
391.5 K, Crystal | 0.000901 kPa
392 K, Crystal | 0.000991 kPa
393 K, Crystal | 0.001171 kPa
393.5 K, Crystal | 0.001111 kPa
396 K, Crystal | 0.001502 kPa and 0.001441 kPa
396.5 K, Crystal | 0.001622 kPa
397 K, Crystal | 0.001652 kPa
398.5 K, Crystal | 0.001862 kPa
399.3 K, Crystal | 0.001952 kPa
504.2 K, Liquid | 1.398 kPa
506.3 K, Liquid | 1.467 kPa and 1.527 kPa
508.1 K, Liquid | 1.661 kPa
509.3 K, Liquid | 1.686 kPa and 1.713 kPa
510.3 K, Liquid | 1.855 kPa
511.2 K, Liquid | 1.855 kPa
512.2 K, Liquid | 2.062 kPa and 1.928 kPa
512.6 K, Liquid | 2.021 kPa
513.3 K, Liquid | 2.078 kPa
514 K, Liquid | 2.144 kPa
514.2 K, Liquid | 2.189 kPa
514.5 K, Liquid | 2.164 kPa
515.2 K, Liquid | 2.237 kPa
516.3 K, Liquid | 2.326 kPa and 2.215 kPa
517.3 K, Liquid | 2.424 kPa
517.4 K, Liquid | 2.494 kPa
517.5 K, Liquid | 2.396 kPa
518.2 K, Liquid | 2.524 kPa and 2.484 kPa
518.3 K, Liquid | 2.448 kPa
519.1 K, Liquid | 2.585 kPa
519.3 K, Liquid | 2.646 kPa
519.5 K, Liquid | 2.554 kPa
520 K, Liquid | 2.619 kPa
520.2 K, Liquid | 2.672 kPa and 2.772 kPa and 2.726 kPa
521.2 K, Liquid | 2.916 kPa
521.3 K, Liquid | 2.807 kPa
521.7 K, Liquid | 2.815 kPa
522.1 K, Liquid | 2.909 kPa and 2.971 kPa
522.2 K, Liquid | 2.978 kPa
523.1 K, Liquid | 3.104 kPa
523.3 K, Liquid | 3.095 kPa and 3.121 kPa
523.5 K, Liquid | 3.122 kPa
524.1 K, Liquid | 3.125 kPa
524.2 K, Liquid | 3.059 kPa and 3.181 kPa
524.4 K, Liquid | 3.199 kPa
525 K, Liquid | 3.353 kPa
525.2 K, Liquid | 3.39 kPa
525.5 K, Liquid | 3.335 kPa
526 K, Liquid | 3.494 kPa
526.3 K, Liquid | 3.406 kPa and 3.328 kPa and 3.288 kPa
526.5 K, Liquid | 3.316 kPa
527.1 K, Liquid | 3.585 kPa
527.3 K, Liquid | 3.551 kPa and 3.644 kPa
528.1 K, Liquid | 3.726 kPa and 3.627 kPa
528.2 K, Liquid | 3.635 kPa
528.3 K, Liquid | 3.831 kPa
529.2 K, Liquid | 3.887 kPa
529.4 K, Liquid | 3.764 kPa
529.6 K, Liquid | 3.879 kPa and 3.918 kPa
530.1 K, Liquid | 3.984 kPa
530.3 K, Liquid | 4.036 kPa and 4.045 kPa
531 K, Liquid | 4.159 kPa
531.3 K, Liquid | 4.262 kPa and 4.216 kPa
532.2 K, Liquid | 4.348 kPa [middle of 4 runs]
533.2 K, Liquid | 4.481 kPa
533.3 K, Liquid | 4.576 kPa and 4.47 kPa
534.3 K, Liquid | 4.611 kPa and 4.532 kPa
535.4 K, Liquid | 4.812 kPa
535.7 K, Liquid | 4.867 kPa
536.2 K, Liquid | 4.889 kPa
536.5 K, Liquid | 4.992 kPa
537.3 K, Liquid | 5.217 kPa
538.3 K, Liquid | 5.356 kPa
539.3 K, Liquid | 5.685 kPa
540.6 K, Liquid | 5.862 kPa

Settings | Normal melting temperature [°C]
[2], Crystal | 165.1
